Where only a bound is given, the exact number is not on record here.

The experiment relates to NCI-H295R. Description: IC50 (antiproliferative, ATP content). To be noted: 48 h. Put shortly: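 Following overnight culture of adrenocortical carcinoma cells (1500 per well) in 1536-well plates with serum-free ITS-supplemented DMEM, library compounds were pin-transferred at 8 final concentrations from 0.6 nM to 46 µM. Incubation lasted 48 h at 37 °C, 5% CO2, and the CellTiter-Glo signal was read after 20 min at room temperature. Data were fitted with a four-parameter logistic model. Each IC50 came from that fit after normalisation to vehicle and positive-control wells, and compounds without a concentration response were reported as above the top dose.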
As to `CCNCC.O=S(=O)(O)c1cc(O)ccc1O`, the IC50 is more than 46 µM.

`CCC(C)(CN(C)C)OC(=O)c1ccccc1.Cl` (configuration not stated): the IC50 was more than 46 µM.

Regarding `C[Se]CCC(N)C(=O)O` (configuration not stated), the 50% inhibitory concentration (IC50) is more than 46 µM.

As to `CC1(C)NC(=O)N(c2ccc([N+](=O)[O-])c(C(F)(F)F)c2)C1=O`, the concentration for half-maximal inhibition (IC50) was more than 46 µM.

Take `CN1CCC(OC(c2ccccc2)c2ccccc2)CC1.Cl`: the IC50 is more than 46 µM.

Compound `CN/C(=N\c1ccc(C2=NNC(=O)CC2C)cc1)NC#N` (configuration not stated) gave a 50% inhibitory concentration (IC50) of more than 46 µM.

For the compound `CN1C(=O)CN=C(c2ccccc2)c2cc([N+](=O)[O-])ccc21`, the IC50 was more than 46 µM.

For `OC(CN1CCC(Cc2ccc(F)cc2)CC1)c1ccc(Cl)cc1` (configuration not stated), the IC50 is more than 46 µM.

In the case of `O=C1C[C@@H]2OCC=C3CN4CC[C@]56c7ccccc7N1[C@H]5[C@H]2[C@H]3C[C@H]46`, the concentration for half-maximal inhibition (IC50) was more than 46 µM.

In turn, `CCCCCCCCCCCCCCCC(=O)OC[C@@H](O)[C@H]1OC[C@H](O)[C@H]1O` had an IC50 of more than 46 µM.

Compound `CCN(CC)CCNC(=O)C1C(C)=NC(/C=C2/C(=O)Nc3ccc(F)cc32)=C1C.O=C(O)CC(O)C(=O)O` (configuration not stated) returned an IC50 of more than 46 µM.

Turning to `Cl.Cl.NC(=O)C1(N2CCCCC2)CCN(CCCC(=O)c2ccc(F)cc2)CC1`, the concentration for half-maximal inhibition (IC50) is more than 46 µM.

Compound `CC(C(=O)O)c1cccc(C(=O)c2ccccc2)c1` (configuration not stated) gave a 50% inhibitory concentration (IC50) of more than 46 µM.

Consider `CC(=O)Oc1cccc(C(=O)O)c1OC(C)=O`, for which the IC50 is more than 46 µM.

For the compound `C=CCN1C[C@H](C)N([C@H](c2ccc(C(=O)N(CC)CC)cc2)c2cccc(OC)c2)C[C@H]1C`, the IC50 was more than 46 µM.

Compound `CCCCC[C@H](O)/C=C/[C@@H]1[C@@H](C/C=C\CCCC(=O)O)[C@@H](O)C[C@H]1O` registered an IC50 of more than 46 µM.

For the compound `O=C(c1ccccc1)C(O)c1ccccc1` (configuration not stated), the IC50 is more than 46 µM.

Compound `O=C1c2ccccc2C(=O)C1c1ccc(Cl)cc1` returned a half-maximal inhibitory concentration (IC50) of more than 46 µM.

Regarding `CCC1(c2ccccc2)C(=O)NC(=O)N(C)C1=O` (configuration not stated), the IC50 was more than 46 µM.

The compound `CC(C)NCC(O)c1ccc(NS(C)(=O)=O)cc1` (configuration not stated) came in with a 50% inhibitory concentration (IC50) of more than 46 µM.

For the compound `Nc1nc2c(ncn2COCCO)c(=O)[nH]1`, the IC50 was more than 46 µM.

For `C=CC(N)CCC(=O)O` (configuration not stated), the IC50 was more than 46 µM.

The compound `Cc1c(-c2ccccc2)oc2c(C(=O)OCCN3CCCCC3)cccc2c1=O.Cl` gave an IC50 of more than 46 µM.

Compound `O.O=S(=O)([O-])CC(S)CS.[Na+]` (configuration not stated) returned an IC50 of more than 46 µM.

For `Cc1cc2nc3c(=O)[nH]c(=O)nc-3n(C[C@H](O)[C@H](O)[C@H](O)CO)c2cc1C`, the IC50 is more than 46 µM.

In turn, `CCCCC(CC)COC(=O)c1ccccc1O` (configuration not stated) yielded an IC50 of more than 46 µM.

Compound `Cl.Cn1ccc2cc3c(cc21)CCN3C(=O)Nc1cccnc1` displayed an IC50 of more than 46 µM.

`CCCCC1C(=O)N(c2ccccc2)N(c2ccccc2)C1=O` showed a 50% inhibitory concentration (IC50) of more than 46 µM.

`Cc1ccccc1` registered an IC50 of more than 46 µM.

For the compound `CN(C)CCOc1ccccc1Cc1ccccc1.O=C(O)CC(O)(CC(=O)O)C(=O)O`, the 50% inhibitory concentration (IC50) is more than 46 µM.

Compound `CC(C[N+](C)(C)C)OC(N)=O.[Cl-]` (configuration not stated) gave a half-inhibitory concentration (IC50) of more than 46 µM.

The compound `CN1C(=O)C(C)(C2=CCCCC2)C(=O)N=C1O` (configuration not stated) showed an IC50 of more than 46 µM.

In turn, `CN(C)CCCN1c2ccccc2Sc2ccc(C(F)(F)F)cc21.Cl` showed an IC50 of more than 46 µM.

As to `O=C(O)CNC(=O)c1ccccc1`, the 50% inhibitory concentration (IC50) was more than 46 µM.

Compound `CC(=O)Nc1ccc(OC(=O)c2ccccc2O)cc1` gave a concentration for half-maximal inhibition (IC50) of more than 46 µM.

In turn, `ClC3=C(C=CC5=C3)OC1=CC([C@@](C(N[C@@](C8=CC%11=C(O)C=C8)([H])C(N[C@H]([C@](N[C@@H]([C@@](O)=O)C%12=C%11C(O[C@H]%13O[C@H](CO)[C@@H](O)[C@H](O)[C@@H]%13O)=CC(O)=C%12)=O)[C@@H]5O[C@@]6([H])[C@H](NC(C)=O)[C@@H](O)[C@H](O)[C@@H](CO)O6)=O)=O)([H])NC([C@@](C9=CC(O)=CC(OC%10=C(O)C=CC([C@@H]%14N)=C%10)=C9)([H])NC([C@H](NC%14=O)C7)=O)=O)=CC(OC4=CC=C7C=C4Cl)=C1O[C@H]2[C@H](NC(CC\C=C/CCCCC)=O)[C@@H](O)[C@H](O)[C@@H](CO)O2` displayed a concentration for half-maximal inhibition (IC50) of more than 46 µM.

In turn, `OC[C@@H](O)[C@H](O)[C@H](O)[C@@H](O)CO` displayed a 50% inhibitory concentration (IC50) of more than 46 µM.

`CCC1C2CC3[C@@H]4N(C)c5ccccc5C45CC(C2[C@H]5O)N3[C@@H]1O` (some centres not stated) showed an IC50 of more than 46 µM.

`CNC(=O)Oc1ccccc1C(=O)Nc1ccccc1` came in with an IC50 of more than 46 µM.

In turn, `CCCOC(=O)c1ccc(O)cc1` gave a 50% inhibitory concentration (IC50) of more than 46 µM.

Turning to `ClC(Cl)(Cl)Cl`, the half-maximal inhibitory concentration (IC50) was more than 46 µM.

`COc1cc2c3cc1Oc1cc(ccc1O)C[C@@H]1c4c(cc(OC)c(O)c4Oc4ccc(cc4)C[C@@H]3N(C)CC2)CC[N+]1(C)C.Cl.[Cl-]`: the 50% inhibitory concentration (IC50) is more than 46 µM.

As to `NC(=O)c1cnccn1`, the IC50 is more than 46 µM.

Consider `C[C@@H]1C[C@H]2[C@@H]3CCC4=CC(=O)C=C[C@]4(C)[C@@]3(F)C(O)C[C@]2(C)[C@H]1C(=O)CO` (some centres not stated), for which the concentration for half-maximal inhibition (IC50) was more than 46 µM.

As for `O=C3N1/C(=C(/Cl)CS[C@@H]1[C@@H]3NC(=O)[C@H](N)c2ccccc2)C(O)=O`, the IC50 was more than 46 µM.

Compound `Cc1c(C(N)=O)cc([N+](=O)[O-])cc1[N+](=O)[O-]` registered an IC50 of more than 46 µM.

In turn, `Cc1cccc(C)c1NC(=O)CN(CC(=O)O)CC(=O)O` had an IC50 of more than 46 µM.

For `O=C1CCC(N2C(=O)c3ccccc3C2=O)C(=O)N1` (configuration not stated), the IC50 is more than 46 µM.

As for `CS(=O)(=O)O.Cc1ccc2c(c1)c1c3n2CCNC3CCC1` (configuration not stated), the IC50 is more than 46 µM.

In turn, `OCc1ccc(Cl)cc1Cl` had an IC50 of more than 46 µM.

`CCOC(N)=O` yielded a half-maximal inhibitory concentration (IC50) of more than 46 µM.

The compound `CCn1cc(C(=O)O)c(=O)c2cnc(N3CCNCC3)nc21` came in with an IC50 of more than 46 µM.

On to `NCCNCCNCCN`, for which the IC50 is more than 46 µM.

`Cl.OC(CCN1CCCCC1)(c1ccccc1)C1CCCCC1` (configuration not stated): the IC50 was more than 46 µM.

As to `CCCCC`, the half-maximal inhibitory concentration (IC50) is more than 46 µM.

For the compound `Oc1ccc(/C=C/c2cc(O)cc(O)c2)cc1`, the IC50 was more than 46 µM.

For the compound `CN1CCC(Nc2ncc3ncnc(Nc4ccc(F)c(Cl)c4)c3n2)CC1.Cl.Cl`, the IC50 is more than 46 µM.

For `Cc1c(C)n(Cc2ccccc2)c2ccc(C(=O)OCCN(C)C)cc12`, the half-maximal inhibitory concentration (IC50) was more than 46 µM.

`CCCC(C)(COC(N)=O)COC(N)=O` showed an IC50 of more than 46 µM.

Compound `O=c1c(-c2ccc(O)cc2)coc2cc(O)cc(O)c12` yielded an IC50 of more than 46 µM.

`O=C(OCc1ccccc1)c1ccccc1` displayed an IC50 of more than 46 µM.

Compound `O=C(O)[C@H](O)c1ccccc1` had an IC50 of more than 46 µM.

Compound `c1ccc(C2(N3CCCC3)CCCCC2)cc1` gave a half-inhibitory concentration (IC50) of more than 46 µM.

With `CC1(C)CCC(C)(C)c2cc(NC(=O)c3ccc(C(=O)O)cc3)ccc21`, the IC50 is more than 46 µM.

For the compound `Cc1c(C)c2c(c(C)c1OC(=O)c1cccnc1)CC[C@@](C)(CCC[C@H](C)CCC[C@H](C)CCCC(C)C)O2`, the IC50 was more than 46 µM.

Turning to `COc1ccc2c(c1)c1c3n2CCN(C)C3=NCC1`, the IC50 was more than 46 µM.

`COc1ccc2nc(NC(=O)Nc3ccccc3)sc2c1` returned a half-maximal inhibitory concentration (IC50) of more than 46 µM.

Compound `O=C(OC[C@H]1O[C@](O)(COC(=O)c2cccnc2)[C@@H](OC(=O)c2cccnc2)[C@@H]1OC(=O)c1cccnc1)c1cccnc1` came in with a half-maximal inhibitory concentration (IC50) of more than 46 µM.

As for `CN1[C@@H]2CC[C@H]1C[C@@H](OC(=O)c1cc(Cl)cc(Cl)c1)C2`, the IC50 is more than 46 µM.

Turning to `CC(=O)c1ccc2c(c1)N(CCCN1CCC(CCO)CC1)c1ccccc1S2`, the half-maximal inhibitory concentration (IC50) was more than 46 µM.

Compound `CCOC(=O)CC(SP(=S)(OC)OC)C(=O)OCC` (configuration not stated) registered an IC50 of more than 46 µM.

In the case of `COc1ccccc1OCC(O)CN1CCN(CC(=O)Nc2c(C)cccc2C)CC1` (configuration not stated), the IC50 was more than 46 µM.

Compound `COc1ccc(C2C(=O)c3ccccc3C2=O)cc1` displayed a 50% inhibitory concentration (IC50) of more than 46 µM.

In the case of `CN1CCC(=C2c3ccccc3C=Cc3ccccc32)CC1`, the half-maximal inhibitory concentration (IC50) is more than 46 µM.

In turn, `CCOC(=O)OC(C)OC1=C(C(=O)Nc2ccccn2)N(C)S(=O)(=O)c2ccccc21` (configuration not stated) displayed an IC50 of more than 46 µM.

Turning to `CCN(CC)C(=O)Nc1ccc(OCC(O)CNC(C)(C)C)c(C(C)=O)c1.Cl` (configuration not stated), the half-inhibitory concentration (IC50) is more than 46 µM.

`COc1ccc(OC)c(C(O)C(C)N)c1.Cl` (configuration not stated): the half-maximal inhibitory concentration (IC50) was more than 46 µM.

Regarding `CC(C)c1ncc([N+](=O)[O-])n1C`, the half-inhibitory concentration (IC50) is more than 46 µM.

As to `N/C1=N/C(=O)N(/C=N1)[C@@H]2O[C@H](CO)[C@@H](O)[C@H]2O`, the IC50 is more than 46 µM.

Consider `Cc1ccnc2c1NC(=O)c1cccnc1N2C1CC1`, for which the 50% inhibitory concentration (IC50) was more than 46 µM.

For the compound `CS(=O)(=O)c1ccc([C@@H](O)[C@@H](CO)NC(=O)C(Cl)Cl)cc1`, the concentration for half-maximal inhibition (IC50) was more than 46 µM.

As to `Cc1cccc(C)c1NC(=O)CC12CCCN1CCC2`, the IC50 was more than 46 µM.

Compound `O=C(CCCN1CCN(c2ccccn2)CC1)c1ccc(F)cc1` yielded a half-inhibitory concentration (IC50) of more than 46 µM.

The compound `CCN(CC)C(=O)c1cccc(C)c1` returned an IC50 of more than 46 µM.

The compound `Cc1cccc(Nc2cc(Cl)nc(SCC(=O)O)n2)c1C` returned a half-maximal inhibitory concentration (IC50) of more than 46 µM.

On to `N[C@@H](CCC(=O)N[C@@H](CS)C(=O)NCC(=O)O)C(=O)O`, for which the IC50 was more than 46 µM.

On to `CCCCCC(C)N.CCCCCC(C)N.O=S(=O)(O)O` (configuration not stated), for which the IC50 was more than 46 µM.

As to `C[C@]43CCC(=O)\C=C4\CC[C@@H]1[C@@H]3CC[C@]2(C)[C@H](O)CC[C@@H]12`, the IC50 is more than 46 µM.

`C[S+](C)CCC(N)C(=O)O.[Cl-]` (configuration not stated) came in with a half-maximal inhibitory concentration (IC50) of more than 46 µM.

As to `CCC(C)(C)c1ccc(O)cc1`, the half-maximal inhibitory concentration (IC50) was more than 46 µM.

`C#C[C@]1(O)C=C[C@H]2[C@@H]3CCC4=CC(=O)CC[C@@H]4[C@H]3CC[C@@]21CC` gave an IC50 of more than 46 µM.

`C=CCN=C=S` registered an IC50 of more than 46 µM.

As a reminder, the IC50 is the midpoint of a concentration-inhibition curve. Low values mean greater potency, high ones weaker potency.
